Drawing on patent US10344060B2 (priority 2013, dated 2019), this text covers IC50, Nav1.4/Nav1.7 and Nav1.5/Nav1.7 for 8 compounds.

What all share (experiment): cell-based
Test [1] has as its target hNav1.5 (Homo sapiens, UniProt Q14524). The conditions noted are these: IonWorks Quattro, read-out: IC50 (μM) Nav1.5. On the technique in general: Patch clamp records ionic current or voltage across a cell membrane.
The target in test [2] is hNav1.4 (Homo sapiens, UniProt P35499). It is filed as cell-based. The conditions noted are these: for IC50: IonWorks Quattro, read-out: IC50 (μM) Nav1.4; for Nav1.4/Nav1.7: ratio of IonWorks Quattro IC50 values.
Test [3] concerns the target T1, hNav1.7 (Homo sapiens, UniProt Q15858). The conditions noted are these: read-out: IC50 (μM) Nav1.7.
Test [4] concerns the target hNav1.3 (Homo sapiens, UniProt Q9NY46). Particulars: IonWorks Quattro, read-out: IC50 (μM) Nav1.3.
Test [5] deals with T1, hNav1.7. It is filed as cell-based. The conditions noted are these: for Nav1.4/Nav1.7 / Nav1.5/Nav1.7: ratio of PX tonic IC50 values, Table 11.

Where two headings read alike, the source gives them in different places. Where only a bound is given, the exact number is not on record here.

Sequence of hNav1.4 (P35499 whole entry): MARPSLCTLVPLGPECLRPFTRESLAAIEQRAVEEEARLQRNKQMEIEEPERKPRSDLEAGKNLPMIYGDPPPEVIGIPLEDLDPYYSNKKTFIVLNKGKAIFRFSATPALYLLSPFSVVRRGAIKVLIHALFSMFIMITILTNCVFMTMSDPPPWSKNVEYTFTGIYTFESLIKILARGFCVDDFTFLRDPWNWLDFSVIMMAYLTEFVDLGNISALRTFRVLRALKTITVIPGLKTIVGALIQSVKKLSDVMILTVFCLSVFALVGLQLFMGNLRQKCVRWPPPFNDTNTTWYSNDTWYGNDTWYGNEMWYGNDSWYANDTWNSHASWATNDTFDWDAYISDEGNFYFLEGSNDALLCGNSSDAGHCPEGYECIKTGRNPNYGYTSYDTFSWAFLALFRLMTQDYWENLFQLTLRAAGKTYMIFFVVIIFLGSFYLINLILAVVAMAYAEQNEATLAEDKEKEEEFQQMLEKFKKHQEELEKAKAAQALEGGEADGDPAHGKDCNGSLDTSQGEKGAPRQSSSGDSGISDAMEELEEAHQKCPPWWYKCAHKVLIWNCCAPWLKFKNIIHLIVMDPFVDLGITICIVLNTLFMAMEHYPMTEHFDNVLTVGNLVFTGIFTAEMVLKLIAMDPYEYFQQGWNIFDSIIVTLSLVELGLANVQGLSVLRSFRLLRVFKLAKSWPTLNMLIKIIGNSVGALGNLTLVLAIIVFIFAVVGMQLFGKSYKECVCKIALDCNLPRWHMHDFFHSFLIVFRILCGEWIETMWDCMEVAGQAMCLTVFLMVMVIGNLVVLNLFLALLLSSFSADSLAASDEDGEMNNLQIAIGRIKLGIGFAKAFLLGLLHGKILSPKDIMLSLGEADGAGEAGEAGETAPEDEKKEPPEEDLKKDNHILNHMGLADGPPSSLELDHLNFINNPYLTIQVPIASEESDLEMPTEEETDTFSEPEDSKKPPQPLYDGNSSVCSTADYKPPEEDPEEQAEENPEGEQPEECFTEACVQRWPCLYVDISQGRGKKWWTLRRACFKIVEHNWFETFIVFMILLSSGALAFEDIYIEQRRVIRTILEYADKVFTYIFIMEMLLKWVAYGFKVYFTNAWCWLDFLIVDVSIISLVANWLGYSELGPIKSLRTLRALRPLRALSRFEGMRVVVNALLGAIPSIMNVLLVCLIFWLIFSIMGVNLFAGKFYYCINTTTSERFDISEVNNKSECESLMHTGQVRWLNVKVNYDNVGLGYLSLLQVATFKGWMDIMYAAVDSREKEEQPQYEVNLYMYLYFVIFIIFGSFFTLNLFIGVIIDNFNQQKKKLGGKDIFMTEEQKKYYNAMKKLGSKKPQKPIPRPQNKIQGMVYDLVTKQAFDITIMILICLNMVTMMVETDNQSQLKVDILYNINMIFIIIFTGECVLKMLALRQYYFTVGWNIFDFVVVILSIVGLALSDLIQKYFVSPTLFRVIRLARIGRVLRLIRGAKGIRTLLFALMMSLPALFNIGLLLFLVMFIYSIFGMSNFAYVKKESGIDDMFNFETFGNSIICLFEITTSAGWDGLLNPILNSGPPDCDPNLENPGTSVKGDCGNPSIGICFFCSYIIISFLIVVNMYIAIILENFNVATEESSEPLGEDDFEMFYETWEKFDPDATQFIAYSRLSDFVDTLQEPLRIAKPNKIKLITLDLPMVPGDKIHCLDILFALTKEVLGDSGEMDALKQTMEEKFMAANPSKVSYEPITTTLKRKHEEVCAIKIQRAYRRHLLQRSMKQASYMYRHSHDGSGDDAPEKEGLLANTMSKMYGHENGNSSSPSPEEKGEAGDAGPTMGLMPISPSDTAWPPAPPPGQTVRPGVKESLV
T1 sequence (Q15858 whole entry): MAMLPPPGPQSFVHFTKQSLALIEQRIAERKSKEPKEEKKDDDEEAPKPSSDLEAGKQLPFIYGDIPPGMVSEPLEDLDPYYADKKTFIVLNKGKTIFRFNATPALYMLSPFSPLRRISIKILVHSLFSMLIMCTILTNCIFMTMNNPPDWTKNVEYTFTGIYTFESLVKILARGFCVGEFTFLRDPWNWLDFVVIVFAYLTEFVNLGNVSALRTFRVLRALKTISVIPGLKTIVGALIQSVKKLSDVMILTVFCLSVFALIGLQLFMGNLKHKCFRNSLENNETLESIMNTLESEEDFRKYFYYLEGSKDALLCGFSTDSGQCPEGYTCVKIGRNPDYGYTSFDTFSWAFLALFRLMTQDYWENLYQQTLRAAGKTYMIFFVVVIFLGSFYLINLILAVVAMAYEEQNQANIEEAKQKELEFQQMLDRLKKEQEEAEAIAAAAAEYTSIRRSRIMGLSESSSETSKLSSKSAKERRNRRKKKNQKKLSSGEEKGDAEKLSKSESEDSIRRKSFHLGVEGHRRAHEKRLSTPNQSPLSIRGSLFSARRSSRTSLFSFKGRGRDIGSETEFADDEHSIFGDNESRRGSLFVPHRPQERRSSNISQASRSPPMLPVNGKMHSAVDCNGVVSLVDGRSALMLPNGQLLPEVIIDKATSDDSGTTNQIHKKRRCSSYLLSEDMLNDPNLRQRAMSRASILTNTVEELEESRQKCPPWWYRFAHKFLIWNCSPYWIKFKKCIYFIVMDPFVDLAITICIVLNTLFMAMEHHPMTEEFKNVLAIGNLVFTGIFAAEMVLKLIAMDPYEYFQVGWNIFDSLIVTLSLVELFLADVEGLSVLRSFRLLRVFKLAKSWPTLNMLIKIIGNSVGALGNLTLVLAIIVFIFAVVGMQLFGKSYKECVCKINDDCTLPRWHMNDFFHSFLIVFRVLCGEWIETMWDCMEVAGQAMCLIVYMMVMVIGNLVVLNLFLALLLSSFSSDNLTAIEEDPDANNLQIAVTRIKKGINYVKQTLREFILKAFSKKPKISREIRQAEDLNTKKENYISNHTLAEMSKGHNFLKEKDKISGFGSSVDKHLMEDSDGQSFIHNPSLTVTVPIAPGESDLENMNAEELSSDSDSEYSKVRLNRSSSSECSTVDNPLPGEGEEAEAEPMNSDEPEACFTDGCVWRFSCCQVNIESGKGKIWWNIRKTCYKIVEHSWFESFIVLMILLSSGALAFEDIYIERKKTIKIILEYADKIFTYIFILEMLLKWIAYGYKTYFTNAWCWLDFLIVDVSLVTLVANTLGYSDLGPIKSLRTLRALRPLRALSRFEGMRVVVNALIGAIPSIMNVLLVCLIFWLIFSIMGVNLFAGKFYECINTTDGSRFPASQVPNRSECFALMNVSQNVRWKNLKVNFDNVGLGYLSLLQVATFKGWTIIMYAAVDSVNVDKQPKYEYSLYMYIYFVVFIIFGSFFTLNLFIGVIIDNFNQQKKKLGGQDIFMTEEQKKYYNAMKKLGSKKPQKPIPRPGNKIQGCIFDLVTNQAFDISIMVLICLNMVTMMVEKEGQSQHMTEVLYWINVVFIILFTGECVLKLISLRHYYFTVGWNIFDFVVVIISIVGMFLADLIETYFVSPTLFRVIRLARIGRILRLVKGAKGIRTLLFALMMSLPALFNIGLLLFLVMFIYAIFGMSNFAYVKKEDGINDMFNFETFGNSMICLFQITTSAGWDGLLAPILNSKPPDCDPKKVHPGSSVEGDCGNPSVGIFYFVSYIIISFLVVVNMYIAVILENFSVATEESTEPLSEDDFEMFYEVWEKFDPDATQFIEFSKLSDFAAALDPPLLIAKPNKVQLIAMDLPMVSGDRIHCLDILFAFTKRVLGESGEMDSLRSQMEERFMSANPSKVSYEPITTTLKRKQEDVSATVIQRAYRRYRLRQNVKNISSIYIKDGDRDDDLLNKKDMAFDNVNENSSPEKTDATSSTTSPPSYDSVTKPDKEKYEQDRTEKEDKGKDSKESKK

As for `CC[C@H](C)[C@H](NC(=O)[C@@H](NC(=O)[C@H](CCCCN)NC(=O)[C@H](CCCNC(=N)N)NC(=O)[C@@H]1CSSC[C@@H]2NC(=O)[C@H](C)NC(=O)[C@H](CCCNC(=N)N)NC(=O)[C@H](CCCCN)NC(=O)[C@H](CO)NC(=O)[C@H](CC(=O)O)NC(=O)[C@@H]3CSSC[C@H](NC(=O)[C@H](C)NC(=O)[C@H](CC(C)C)NC(=O)CNC(=O)[C@H](CCC(=O)O)NC(=O)[C@H](CSSC[C@H](NC(=O)[C@@H](N)Cc4ccc(O)cc4)C(=O)N[C@@H](CCC(N)=O)C(=O)N[C@@H](CCCCN)C(=O)N[C@@H](Cc4c[nH]c5ccccc45)C(=O)N[C@@H](CCSC)C(=O)N[C@@H](Cc4c[nH]c5ccccc45)C(=O)N[C@@H]([C@@H](C)O)C(=O)N3)NC2=O)C(=O)N[C@@H](CCCCN)C(=O)N[C@@H](CC(C)C)C(=O)N[C@@H](Cc2c[nH]c3ccccc23)C(=O)N1)[C@@H](C)CC)C(N)=O` [compound 17], the IC50 was above 5 µM in test [1] (Table 6), 0.42 µM in test [2] (Table 6), 0.009 µM in test [3] and 0.26 µM in test [4] (Table 6). Further, the Nav1.4/Nav1.7 in test [2] (Table 6) turned out to be 46; in test [5], 8. In addition, the Nav1.5/Nav1.7 in test [5] is 229.
In the case of `CCCC[C@@H]1NC(=O)[C@H](Cc2c[nH]c3ccccc23)NC(=O)[C@H](CCCCN)NC(=O)[C@H](CCC(N)=O)NC(=O)[C@@H](NC(=O)[C@@H](N)Cc2ccc(O)cc2)CSSC[C@@H]2NC(=O)[C@@H]3CSSC[C@@H](C(=O)N[C@@H](CCCNC(=N)N)C(=O)N[C@@H](CCCCN)C(=O)N[C@H](C(=O)N[C@@H](Cc4cn(CCCOCCOCCOCCOCCOCCOCCOCCOCCOCCOCCN)nn4)C(N)=O)[C@@H](C)CC)NC(=O)[C@H](Cc4c[nH]c5ccccc45)NC(=O)[C@H](CC(C)C)NC(=O)[C@H](CCCCN)NC(=O)[C@H](CSSC[C@H](NC(=O)[C@H]([C@@H](C)O)NC(=O)[C@H](Cc4c[nH]c5ccccc45)NC1=O)C(=O)N[C@@H](CC(=O)O)C(=O)N[C@@H](CO)C(=O)N[C@@H](CCCCN)C(=O)N[C@@H](CCCNC(=N)N)C(=O)N[C@@H](C)C(=O)N3)NC(=O)[C@H](CCCNC(=N)N)NC(=O)[C@H](CC(C)C)NC(=O)CNC(=O)[C@H](CCC(=O)O)NC2=O` [compound 270], the IC50 was above 7 µM in test [1] (Table 9); 0.75 µM in test [2] (Table 9); 0.4 µM in test [3] (IonWorks Quattro, […]); 3.9 µM in test [4] (Table 9); 22 nM in test [5] (read-out: PX hNav1.7 Tonic IC50). For the same compound, the Nav1.4/Nav1.7 in test [2] (Table 9) came out at 2.
With `CC[C@H](C)[C@H](NC(=O)[C@@H](NC(=O)[C@H](CCCCN)NC(=O)[C@H](CCCNC(=N)N)NC(=O)[C@@H]1CSSC[C@@H]2NC(=O)[C@H](C)NC(=O)[C@H](CCCNC(=N)N)NC(=O)[C@H](CCCCN)NC(=O)[C@H](CO)NC(=O)[C@H](CC(=O)O)NC(=O)[C@@H]3CSSC[C@H](NC(=O)[C@H](CCCNC(=N)N)NC(=O)[C@H](CC(C)C)NC(=O)CNC(=O)[C@H](CCC(=O)O)NC(=O)[C@H](CSSC[C@H](NC(=O)[C@@H](N)CCC(=O)O)C(=O)N[C@@H](CCC(N)=O)C(=O)N[C@@H](CCCCN)C(=O)N[C@@H](Cc4c[nH]c5ccccc45)C(=O)N[C@@H](CCSC)C(=O)N[C@@H](Cc4c[nH]c5ccccc45)C(=O)N[C@@H]([C@@H](C)O)C(=O)N3)NC2=O)C(=O)N[C@@H](CCCCN)C(=O)N[C@@H](CC(C)C)C(=O)N[C@@H](Cc2c[nH]c3ccccc23)C(=O)N1)[C@@H](C)CC)C(N)=O` [compound 49], the IC50 in test [1] (Table 6) is above 5 µM; in test [2] (Table 6) it was 0.23 µM; in test [3], 0.018 µM; in test [4] (Table 6) it was 0.16 µM. The figures for the Nav1.4/Nav1.7 in test [2] (Table 6) and in test [5] were 13 and 27, respectively. Further, the Nav1.5/Nav1.7 in test [5] is 21467.
In the case of `CC[C@H](C)[C@H](NC(=O)[C@@H](NC(=O)[C@H](CCCCN)NC(=O)[C@H](CCCNC(=N)N)NC(=O)[C@@H]1CSSC[C@@H]2NC(=O)[C@H](C)NC(=O)[C@H](CCCNC(=N)N)NC(=O)[C@H](CCCCN)NC(=O)[C@H](CO)NC(=O)[C@H](CC(=O)O)NC(=O)[C@@H]3CSSC[C@H](NC(=O)[C@H](CCCNC(=N)N)NC(=O)[C@H](CC(C)C)NC(=O)CNC(=O)[C@H](CCC(=O)O)NC(=O)[C@H](CSSC[C@H](NC(=O)[C@@H](N)Cc4ccc(O)cc4)C(=O)N[C@@H](CCCNC(=N)N)C(=O)N[C@@H](CCCCN)C(=O)N[C@@H](Cc4c[nH]c5ccccc45)C(=O)N[C@@H](CCSC)C(=O)N[C@@H](Cc4c[nH]c5ccccc45)C(=O)N[C@@H]([C@@H](C)O)C(=O)N3)NC2=O)C(=O)N[C@@H](CCCCN)C(=O)N[C@@H](CC(C)C)C(=O)N[C@@H](Cc2c[nH]c3ccccc23)C(=O)N1)[C@@H](C)CC)C(N)=O` [compound 91], the IC50 stood at 3.2 µM in test [1] (Table 6), 0.14 µM in test [2] (Table 6), 0.025 µM in test [3] and 0.06 µM in test [4] (Table 6). Further, in test [2] (Table 6), the Nav1.4/Nav1.7 was found to be 6.
As to `CCCC[C@@H]1NC(=O)[C@H](Cc2cn(CCCOCCOCCOCCOCCOCCOCCOCCOCCOCCOCCN)nn2)NC(=O)[C@H](CCCCN)NC(=O)[C@H](CCC(N)=O)NC(=O)[C@@H](NC(=O)[C@@H](N)Cc2ccc(O)cc2)CSSC[C@@H]2NC(=O)[C@@H]3CSSC[C@@H](C(=O)N[C@@H](CCCNC(=N)N)C(=O)N[C@@H](CCCCN)C(=O)N[C@H](C(=O)N[C@H](C(N)=O)[C@@H](C)CC)[C@@H](C)CC)NC(=O)[C@H](Cc4c[nH]c5ccccc45)NC(=O)[C@H](CC(C)C)NC(=O)[C@H](CCCCN)NC(=O)[C@H](CSSC[C@H](NC(=O)[C@H]([C@@H](C)O)NC(=O)[C@H](Cc4c[nH]c5ccccc45)NC1=O)C(=O)N[C@@H](CC(=O)O)C(=O)N[C@@H](CO)C(=O)N[C@@H](CCCCN)C(=O)N[C@@H](CCCNC(=N)N)C(=O)N[C@@H](C)C(=O)N3)NC(=O)[C@H](CCCNC(=N)N)NC(=O)[C@H](CC(C)C)NC(=O)CNC(=O)[C@H](CCC(=O)O)NC2=O` [compound 251], the IC50 in test [1] (Table 9) was above 7 µM; in test [2] (Table 9), above 7 µM; in test [3] (IonWorks Quattro, […]), above 7 µM; in test [4] (Table 9), above 7 µM.
For `CC[C@H](C)[C@H](NC(=O)[C@@H](NC(=O)[C@H](CCCCN)NC(=O)[C@H](CCCNC(=N)N)NC(=O)[C@@H]1CSSC[C@@H]2NC(=O)[C@H](CCCNC(=N)N)NC(=O)[C@H](CCCNC(=N)N)NC(=O)[C@H](CCCCN)NC(=O)[C@H](CO)NC(=O)[C@H](CC(=O)O)NC(=O)[C@@H]3CSSC[C@H](NC(=O)[C@H](CCCNC(=N)N)NC(=O)[C@H](CC(C)C)NC(=O)CNC(=O)[C@H](CCC(=O)O)NC(=O)[C@H](CSSC[C@H](NC(=O)[C@@H](N)Cc4ccc(O)cc4)C(=O)N[C@@H](CCC(N)=O)C(=O)N[C@@H](CCCCN)C(=O)N[C@@H](Cc4c[nH]c5ccccc45)C(=O)N[C@@H](CCSC)C(=O)N[C@@H](Cc4c[nH]c5ccccc45)C(=O)N[C@@H]([C@@H](C)O)C(=O)N3)NC2=O)C(=O)N[C@@H](CCCCN)C(=O)N[C@@H](CC(C)C)C(=O)N[C@@H](Cc2c[nH]c3ccccc23)C(=O)N1)[C@@H](C)CC)C(N)=O` [compound 100], the IC50 in test [1] (Table 6) was found to be 1.4 µM; in test [2] (Table 6) it was 0.08 µM; in test [3], 0.008 µM; in test [4] (Table 6), 0.04 µM. In addition, the Nav1.4/Nav1.7 in test [2] (Table 6) is reported as 11.
For `CC[C@H](C)[C@H](NC(=O)[C@@H](NC(=O)[C@H](CCCCN)NC(=O)[C@H](CCCNC(=N)N)NC(=O)[C@@H]1CSSC[C@@H]2NC(=O)[C@H](C)NC(=O)[C@H](CCCNC(=N)N)NC(=O)[C@H](CCCCN)NC(=O)[C@H](CO)NC(=O)[C@H](CC(=O)O)NC(=O)[C@@H]3CSSC[C@H](NC(=O)[C@H](CCCNC(=N)N)NC(=O)[C@H](CC(C)C)NC(=O)CNC(=O)[C@H](CCC(=O)O)NC(=O)[C@H](CSSC[C@H](NC(=O)[C@@H](N)Cc4ccc(O)cc4)C(=O)N[C@@H](CCC(N)=O)C(=O)N[C@@H](CCCCN)C(=O)N[C@@H](Cc4c[nH]c5ccccc45)C(=O)N[C@@H](CCSC)C(=O)N[C@@H](Cc4c[nH]c5ccccc45)C(=O)N[C@@H]([C@@H](C)O)C(=O)N3)NC2=O)C(=O)N[C@@H](C)C(=O)N[C@@H](CC(C)C)C(=O)N[C@@H](Cc2c[nH]c3ccccc23)C(=O)N1)[C@@H](C)CC)C(N)=O` [compound 18], the 50% inhibitory concentration (IC50) was above 5 µM in test [1] (Table 6), 0.41 µM in test [2] (Table 6), 0.062 µM in test [3] and 0.52 µM in test [4] (Table 6). Also, the Nav1.4/Nav1.7 in test [2] (Table 6) is given as 7.
For `CC[C@H](C)[C@H](NC(=O)[C@@H](NC(=O)[C@H](CCCCN)NC(=O)[C@H](CCCNC(=N)N)NC(=O)[C@@H]1CSSC[C@@H]2NC(=O)[C@H](C)NC(=O)[C@H](CCCNC(=N)N)NC(=O)[C@H](CCCCN)NC(=O)[C@H](CO)NC(=O)[C@H](CC(=O)O)NC(=O)[C@@H]3CSSC[C@H](NC(=O)[C@H](CCCNC(=N)N)NC(=O)[C@H](CC(C)C)NC(=O)CNC(=O)[C@H](CCC(=O)O)NC(=O)[C@H](CSSC[C@H](NC(=O)[C@@H](N)Cc4ccc(O)cc4)C(=O)N[C@@H](CCC(N)=O)C(=O)N[C@@H](CCCCN)C(=O)N[C@@H](Cc4c[nH]c5ccccc45)C(=O)N[C@@H](CCSC)C(=O)N[C@@H](CCCCN)C(=O)N[C@@H]([C@@H](C)O)C(=O)N3)NC2=O)C(=O)N[C@@H](CCCCN)C(=O)N[C@@H](CC(C)C)C(=O)N[C@@H](Cc2c[nH]c3ccccc23)C(=O)N1)[C@@H](C)CC)C(N)=O` [compound 75], the IC50 is above 5 µM in test [1] (Table 6), 0.43 µM in test [2] (Table 6), 0.08 µM in test [3] and 0.31 µM in test [4] (Table 6). Further, the Nav1.4/Nav1.7 in test [2] (Table 6) came to 5.

As usually defined, the IC50 is the midpoint of a concentration-inhibition curve.
